Data taken from patent US20090030049A1, “MEDICAMENT FOR GENITAL HERPES” (ASTELLAS PHARMA INC., priority 2005, published 2009).
Several values for one entry are separate records, joined by “and”; a condition that tells them apart may be missing. Identical values can stand only once.

System: HSV-2 strain G
Experiment: Therapeutic activity upon guinea pig HSV-2 genital herpes model (vaginal lesion score)
Assay type: in vivo
Conditions: oral, twice a day, dose inhibiting 50% of average vaginal lesion score of placebo group at 9 days after infection, Hartley female guinea pig; for ED50: Human alphaherpesvirus 2, in Cavia porcellus, started after development of vaginal lesions (day 4 to 8 after infection), read-out: Lesion inhibitory activity (ED50; mg/kg) (4 to 8 days of administration after infection); for Comparative test (administration before the development of lesions) (ED50; mg/kg) (0 to 4 days of administration after infection): started 3 hours after HSV-2 infection until 4 days after infection
Experimental: In vivo activity of the pharmaceutical composition of the present invention was tested using an HSV-2 infected guinea pig vagina genital herpes model in reference to the method of L. Stanberry et al. (Journal of Infectious Disease, 1982, 146, 397-404). An absorbent cotton swab was impregnated with an HSV-2 virus suspension (HSV-2 strain G 1.25×10^5 PFU/ml) and inserted into the vagina of a Hartley female guinea pig (4 weeks of age) under diethyl ether anesthesia, thereby infecting it with HSV-2. Vagina lesions and general conditions caused by the HSV-2 infection were scored based on the following 6 steps and evaluated every day from the infected day (0 day) to 9 days after the infection.
Score 1: formation of approximately 1 or 2 small blisters which can be observed with the naked eye
Score 2: formation of blisters in 10 to 50% per vaginal visible area
Score 3: formation of blisters in 50 to 100% per vaginal visible area
Score 4: formation of ulcers in 10 to 50% per vaginal visible area
Score 5: formation of ulcers in 50 to 100% per vaginal visible area
Score 6: paralysis of hind legs or death
Only guinea pigs in which the vaginal lesion score was judged to be 1 or 2 and development of lesions therefore was found were selected after the development of vaginal lesions by HSV-2 infection, namely 4 days after the infection, their grouping was carried out in such a manner that average values of the scores became even, and then administration of each compound to be tested was started. Each compound to be tested was made into a methyl cellulose suspension and orally administered twice a day for 5 days of from the 4th day to 8th day after the infection. Additionally, in order to compare degrees of the therapeutic effect due to difference in the administration starting period, a comparative test was simultaneously carried out in which the administration was started before the development of vaginal lesions (3 hours after the HSV-2 infection) and the administration was carried out in the same manner until 4 days after the infection. Each test was carried out using 10 animals per group of the guinea pigs and using VCV as the comparative compound.
Regarding the average vaginal lesion score of 9 days after the HSV-2 infection, the dose of each compound to be tested which inhibits 50% of the score of the placebo administration group (ED50 value; mg/kg, twice a day) was calculated, with the results shown in the following table.

Row | Structure (SMILES) | ED50 [mg/kg] | Comparative test (administration before the development of lesions) (ED50; mg/kg) (0 to 4 days of administration after infection)
1 | Cc1ccc(N(CC(=O)Nc2ccc(-c3cocn3)cc2)C(=O)C2CCS(=O)(=O)CC2)cc1 [Preparation 2, N-(4-methylphenyl)-N-(2-{[4-(1,3-oxazol-4-yl)phenyl]amino}-2-oxoethyl)tetrahydro-2H-thiopyran-4-carboxamide 1,1-dioxide] | 3.1 | 1.3 mg/kg
2 | Cc1cccc(C)c1N(CC(=O)Nc1ccc(-c2ncon2)cc1)C(=O)C1CCS(=O)(=O)CC1 [Preparation 27, N-(2,6-dimethylphenyl)-N-(2-{[4-(1,2,4-oxadiazol-3-yl)phenyl]amino}-2-oxoethyl)tetrahydro-2H-thiopyran-4-carboxamide 1,1-dioxide] | 2.5 | 1.2 mg/kg
3 | CC(C)[C@H](N)C(=O)OCCOCn1cnc2c(=O)[nH]c(N)nc21 [VCV, valacyclovir, reference compound] | ≥ 300 | 117 mg/kg and 50 mg/kg
